The record followed here is ChEMBL document CHEMBL5727401, “Mixed lineage kinase inhibitors for HIV/AIDS therapies” (2019).

pIC50: −log10 of the molar value.

For orientation: pIC50 means the negative decadic logarithm of the IC50, by convention in mol/L.

This test deals with Mitogen-activated protein kinase kinase kinase 11 (Homo sapiens, UniProt Q16584). Description: Radiometric Filter Plate MLK3 Assay: 200 ng (130 nM) MLK3 (Dundee, DU8313) was incubated with 1 μM inactive MKK7b (Dundee, DU703) in the presence of 2 μM cold ATP (Km) and 0.5 μCi/assay 33P ATP and appropriate concentrations of compounds. After a twenty minute incubation, the reactions were washed through filter plates and read on a scintillation counter.
Chain of Mitogen-activated protein kinase kinase kinase 11 (Q16584 whole entry): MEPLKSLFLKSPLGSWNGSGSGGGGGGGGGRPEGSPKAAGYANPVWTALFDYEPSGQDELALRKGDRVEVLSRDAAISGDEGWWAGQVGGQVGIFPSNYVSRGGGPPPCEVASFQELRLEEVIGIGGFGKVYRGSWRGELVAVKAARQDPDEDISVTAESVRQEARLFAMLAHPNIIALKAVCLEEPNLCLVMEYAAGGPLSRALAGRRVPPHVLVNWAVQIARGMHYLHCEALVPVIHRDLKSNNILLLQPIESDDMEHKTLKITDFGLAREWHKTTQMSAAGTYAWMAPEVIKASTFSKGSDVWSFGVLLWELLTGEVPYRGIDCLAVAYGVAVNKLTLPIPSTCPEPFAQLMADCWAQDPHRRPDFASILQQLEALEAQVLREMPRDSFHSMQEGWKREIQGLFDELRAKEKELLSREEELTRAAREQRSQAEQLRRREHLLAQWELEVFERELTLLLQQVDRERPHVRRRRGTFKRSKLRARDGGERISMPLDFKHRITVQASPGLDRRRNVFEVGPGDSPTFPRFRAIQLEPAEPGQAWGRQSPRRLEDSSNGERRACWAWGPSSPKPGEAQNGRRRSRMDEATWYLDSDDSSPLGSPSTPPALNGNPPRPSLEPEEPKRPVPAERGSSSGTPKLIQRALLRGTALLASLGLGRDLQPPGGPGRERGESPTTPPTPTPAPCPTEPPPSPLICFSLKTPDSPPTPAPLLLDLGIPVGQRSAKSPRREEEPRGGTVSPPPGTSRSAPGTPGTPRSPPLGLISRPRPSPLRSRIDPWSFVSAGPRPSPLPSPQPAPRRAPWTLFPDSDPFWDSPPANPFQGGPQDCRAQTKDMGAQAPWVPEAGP

As to `c1cn(Cc2ccc(-c3cnc4[nH]cc(-c5ccc6[nH]ccc6c5)c4c3)cc2)cn1`, the pIC50 is > 7.00.

Consider `CN1CCN(Cc2ccc(-c3cnc4[nH]cc(-c5cnc6[nH]ccc6c5)c4c3)cc2)CC1`, for which the negative logarithm of the IC50 (pIC50) was > 7.00.
